Data on 71 molecules can be found in PubChem BioAssay AID977614 (Broad Institute, 2014).

Structures are written as SMILES. Activity calls are given as the source filed them.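 Rule for the calls: active = parasite count per well reduced by over 3 SD from the mean, with host cell number above 80% of untreated; inactive = the rest.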

What is called AC50 is the midpoint of the concentration-response curve, whichever way the signal moves.

In the assay the test system is L. donovani amastigotes in THP-1 macrophages, DAPI imaging, 72 h. The assay is described as follows: antileishmanial activity in infected macrophages – imaging, THP-1 host macrophages, single concentration (AID 977614).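 Note: signal is the parasite per host cell ratio from DAPI stained kinetoplasts and nuclei.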

On to `O=C(c1ccccc1F)N1C[C@@H]2[C@H](c3ccccc31)[C@@H](CO)N2Cc1ccc2c(c1)OCO2`, for which the AC50 is > 10 µM (inactive).

Take `COCC(=O)N1[C@H](CO)[C@H]2c3ccccc3N(C)C[C@H]21`: the AC50 was > 10 µM (inactive).

With `C[C@H]1CN([C@@H](C)CO)C(=O)CCCn2nncc2CO[C@H]1CN(C)S(=O)(=O)c1cn(C)cn1`, the AC50 was > 10 µM (inactive).

Consider `O=S(=O)(c1ccccc1)N1C[C@@H]2[C@H](c3ccccc31)[C@H](CO)N2Cc1ccccn1`, for which the AC50 is > 10 µM (inactive).

For `C[C@@H]1CN([C@H](C)CO)C(=O)CCCn2nncc2CO[C@@H]1CN(C)Cc1ccc2c(c1)OCCN2C`, the AC50 is > 10 µM (inactive).

On to `C/C=C/c1ccc([C@H]2[C@@H](CO)N(CCC)[C@H]2CNC(=O)CN2CCOCC2)cc1`, for which the AC50 was > 10 µM (inactive).

Consider `COc1ccccc1NC(=O)N1C[C@@H]2[C@H](c3ccccc31)[C@H](CO)N2Cc1ccc2c(c1)OCO2`, for which the AC50 was > 10 µM (inactive).

`CC(=O)N1[C@H](CNC(=O)CN(C)C)[C@@H](c2ccc(C3=CCCCC3)cc2)[C@@H]1CO`: the AC50 is > 10 µM (inactive).

Consider `COCC(=O)N1C[C@@H]2[C@H](c3ccccc31)[C@@H](CO)N2Cc1cc(F)ccc1F`, for which the AC50 was > 10 µM (inactive).

In the case of `O=C(Nc1ccc(F)cc1)N1C[C@@H]2[C@H](c3ccccc31)[C@@H](CO)N2C(=O)c1ccncc1`, the AC50 is > 10 µM (inactive).

On to `COCCN(C[C@H]1[C@H](c2ccccc2)[C@@H](CO)N1C(C)=O)C(=O)c1cccnc1`, for which the AC50 is > 10 µM (inactive).

Turning to `CCC(=O)NC[C@@H]1[C@@H](c2ccc(-c3cccc(F)c3)cc2)[C@@H](CO)N1CC1CC1`, the AC50 is > 10 µM (inactive).

For the molecule `O=C(c1cnccn1)N1C[C@H]2[C@@H](c3ccccc31)[C@@H](CO)N2CC1CCCC1`, the AC50 is > 10 µM (inactive).

For the molecule `CC(=O)N1[C@H](CO)[C@H](c2ccccc2)[C@@H]1CN(C)S(=O)(=O)c1ccccc1`, the AC50 is > 10 µM (inactive).

As to `CN1C[C@@H]2[C@H](c3ccccc31)[C@H](CO)N2S(=O)(=O)c1ccccc1`, the AC50 was > 10 µM (inactive).

With `CC(=O)N1[C@H](CN(C)S(=O)(=O)c2ccccc2)[C@H](c2ccccc2)[C@@H]1CO`, the AC50 is > 10 µM (inactive).

As for `Cc1noc(C)c1S(=O)(=O)N(C)C[C@H]1OCc2cn(nn2)CCCC(=O)N([C@H](C)CO)C[C@@H]1C`, the AC50 is > 10 µM (inactive).

For `CC(=O)N(CC1CCC1)C[C@@H]1N[C@@H](CO)[C@H]1c1ccc(C2=CCCC2)cc1`, the AC50 was > 10 µM (inactive).

With `Cc1noc(C)c1S(=O)(=O)N(C)C[C@@H]1OCc2cn(nn2)CCCC(=O)N([C@H](C)CO)C[C@H]1C`, the AC50 was > 10 µM (inactive).

For `COCC(=O)N1[C@H](CO)[C@H]2c3ccccc3N(C(=O)c3cccnc3)C[C@H]21`, the AC50 is > 10 µM (inactive).

For the molecule `CCC(=O)N1C[C@H]2[C@@H](c3ccccc31)[C@H](CO)N2C(=O)CC1CC1`, the AC50 was > 10 µM (inactive).

Consider `O=C(NC[C@H]1[C@H](c2ccccc2)[C@H](CO)N1Cc1ccccn1)C1CCCC1`, for which the AC50 is > 10 µM (inactive).

Turning to `CC(=O)N1[C@H](CO)[C@@H](c2ccccc2)[C@@H]1CNC(=O)CN1CCOCC1`, the AC50 is > 10 µM (inactive).

Consider `CCC(=O)N1[C@H](CO)[C@@H](c2ccccc2)[C@@H]1CN(CC)C(=O)c1cccc(F)c1`, for which the AC50 is > 10 µM (inactive).

Turning to `O=C(NC[C@@H]1N[C@@H](CO)[C@@H]1c1ccccc1)c1ccccc1F`, the AC50 was > 10 µM (inactive).

As to `COCC(=O)N1C[C@@H]2[C@H](c3ccccc31)[C@H](CO)N2C(=O)c1ccccc1F`, the AC50 is > 10 µM (inactive).

On to `OC[C@@H]1[C@H]2c3ccccc3NC[C@H]2N1Cc1cccnc1`, for which the AC50 was > 10 µM (inactive).

Turning to `O=C(Cc1cccnc1)N1[C@H](CO)[C@H](c2ccccc2)[C@@H]1CNCC1CCC1`, the AC50 is > 10 µM (inactive).

With `O=S(=O)(c1ccccc1)N1[C@H](CO)[C@@H]2c3ccccc3NC[C@@H]21`, the AC50 was > 10 µM (inactive).

Turning to `CN(C[C@@H]1N[C@H](CO)[C@H]1c1ccc(C2=CCCC2)cc1)C(=O)c1cccc(F)c1`, the AC50 was > 10 µM (inactive).

With `C[C@@H]1CN([C@H](C)CO)C(=O)CCCn2nncc2CO[C@@H]1CN(C)S(=O)(=O)c1ccccc1C#N`, the AC50 was > 10 µM (inactive).

For the molecule `OC[C@@H]1[C@H]2c3ccccc3NC[C@H]2N1Cc1ccccc1Cl`, the AC50 is > 10 µM (inactive).

Turning to `CCC(=O)N1[C@H](CO)[C@@H](c2ccccc2)[C@@H]1CN(C)C(=O)CN1CCOCC1`, the AC50 was > 10 µM (inactive).

As to `CCC(=O)N1[C@H](CO)[C@H](c2ccccc2)[C@@H]1CN(CC)C(=O)c1cccc(F)c1`, the AC50 was > 10 µM (inactive).

As for `CC(=O)N1[C@@H]2CN(S(=O)(=O)c3ccccc3C)c3ccccc3[C@@H]2[C@@H]1CO`, the AC50 was > 10 µM (inactive).

Take `C[C@@H]1CN([C@H](C)CO)C(=O)CCCn2cc(nn2)CO[C@H]1CN(C)C(=O)NC1CCCCC1`: the AC50 is > 10 µM (inactive).

For `O=C(C1CCC1)N1C[C@H]2[C@@H](c3ccccc31)[C@H](CO)N2C(=O)Nc1cccc(F)c1`, the AC50 was > 10 µM (inactive).

On to `O=C(CC(F)(F)F)N1C[C@H]2[C@@H](c3ccccc31)[C@H](CO)N2C(=O)c1ccncc1`, for which the AC50 was > 10 µM (inactive).

For `C[C@@H]1CN([C@@H](C)CO)C(=O)CCCn2nncc2CO[C@H]1CN(C)CC1CCCCC1`, the AC50 is > 10 µM (inactive).

In the case of `C[C@@H]1CN([C@@H](C)CO)C(=O)CCCn2cc(nn2)CO[C@@H]1CN(C)C(=O)Nc1cccc(C(F)(F)F)c1`, the AC50 is > 10 µM (inactive).

On to `COc1cccc(C(=O)N2C[C@@H]3[C@H](c4ccccc42)[C@@H](CO)N3C(=O)c2cccc(F)c2)c1`, for which the AC50 was > 10 µM (inactive).

Turning to `Cc1noc(C)c1S(=O)(=O)N(C)C[C@@H]1OCc2cn(nn2)CCCC(=O)N([C@H](C)CO)C[C@@H]1C`, the AC50 was > 10 µM (inactive).

In the case of `COCC(=O)N1[C@@H]2CN(C)c3ccccc3[C@@H]2[C@@H]1CO`, the AC50 was > 10 µM (inactive).

On to `COCCNC[C@@H]1[C@H](c2ccccc2)[C@H](CO)N1c1nc(C)c(C)s1`, for which the AC50 was > 10 µM (inactive).

For the molecule `COc1ccc(NC(=O)N(C)C[C@@H]2OCc3cnnn3CCCC(=O)N([C@H](C)CO)C[C@H]2C)c(OC)c1`, the AC50 is > 10 µM (inactive).

For `C[C@H](CO)N1C[C@H](C)[C@H](CN(C)S(=O)(=O)c2ccccc2C#N)OCc2cnnn2CCCC1=O`, the AC50 is > 10 µM (inactive).

`C/C=C/c1ccc([C@H]2[C@@H](CO)N(C(C)=O)[C@@H]2CNC(=O)c2ccccc2)cc1`: the AC50 was > 10 µM (inactive).

Turning to `O=C(NC[C@@H]1[C@@H](c2ccccc2)[C@H](CO)N1Cc1cccnc1)c1ccccn1`, the AC50 is > 10 µM (inactive).

As for `C[C@H]1CN([C@@H](C)CO)C(=O)CCCn2cc(nn2)CO[C@H]1CN(C)C(=O)Nc1cccc(C(F)(F)F)c1`, the AC50 is > 10 µM (inactive).

For `COCCN(C[C@H]1N[C@H](CO)[C@@H]1c1ccc(-c2cccc(C#N)c2)cc1)C(C)=O`, the AC50 was > 10 µM (inactive).

`CCC(=O)N1[C@H](CO)[C@H](c2ccc(-c3cncnc3)cc2)[C@@H]1CN(C)C(C)=O`: the AC50 was > 10 µM (inactive).

`COCC(=O)N(C[C@H]1[C@H](c2ccccc2)[C@@H](CO)N1C(=O)NC(C)C)C(C)C`: the AC50 was > 10 µM (inactive).

Regarding `O=C(Nc1cccc(Cl)c1)N1C[C@H]2[C@@H](c3ccccc31)[C@H](CO)N2Cc1cccnc1`, the AC50 was > 10 µM (inactive).

Turning to `C[C@@H]1CN([C@H](C)CO)C(=O)CCCn2cc(nn2)CO[C@@H]1CN(C)S(=O)(=O)c1cccc(C#N)c1`, the AC50 was > 10 µM (inactive).

For the molecule `O=C(c1ccc2c(c1)OCO2)N1C[C@H]2[C@@H](c3ccccc31)[C@H](CO)N2C(=O)CC1CC1`, the AC50 was > 10 µM (inactive).

For the molecule `CCCN(C[C@H]1N[C@H](CO)[C@@H]1c1ccccc1)C(=O)COC`, the AC50 was > 10 µM (inactive).

For `C[C@@H]1CN([C@H](C)CO)C(=O)CCCn2nncc2CO[C@H]1CN(C)Cc1ccc(C(=O)Nc2ccccc2N)cc1`, the AC50 is > 10 µM (inactive).

Turning to `O=C(CN1CCOCC1)N1[C@@H](CO)[C@@H]2c3ccccc3NC[C@@H]21`, the AC50 is > 10 µM (inactive).

Turning to `O=C(NC[C@H]1N[C@H](CO)[C@@H]1c1ccccc1)c1ccccc1F`, the AC50 is > 10 µM (inactive).

Turning to `CN(C[C@H]1N[C@@H](CO)[C@H]1c1ccc(-c2ccc(F)cc2)cc1)C(=O)C1CCC1`, the AC50 is > 10 µM (inactive).

In the case of `COCC(=O)N(C)C[C@H]1[C@H](c2ccccc2)[C@H](CO)N1C(=O)Cc1ccncc1`, the AC50 was > 10 µM (inactive).

As for `N#Cc1cccc(-c2ccc([C@H]3[C@@H](CO)N[C@@H]3CNC(=O)C3CCC3)cc2)c1`, the AC50 is > 10 µM (inactive).

As to `C[C@H](CO)N1C[C@H](C)[C@@H](CN(C)C(=O)Nc2ccnc(N3CCOCC3)c2)OCc2cnnn2CCCC1=O`, the AC50 was > 10 µM (inactive).

`CCS(=O)(=O)N(C)C[C@@H]1N[C@H](CO)[C@@H]1c1ccc(-c2ccccc2F)cc1`: the AC50 was > 10 µM (inactive).

Regarding `CC(=O)NC[C@@H]1[C@@H](c2ccc(C#Cc3ccccc3F)cc2)[C@@H](CO)N1C(C)=O`, the AC50 is > 10 µM (inactive).

For `CCCNC(=O)N1[C@H](CNC(=O)c2cccc(F)c2)[C@H](c2ccccc2)[C@@H]1CO`, the AC50 is > 10 µM (inactive).

Turning to `C/C=C/c1ccc([C@@H]2[C@@H](CO)N(C(C)=O)[C@@H]2CNC(=O)c2ccccc2)cc1`, the AC50 is > 10 µM (inactive).

Regarding `COc1ccc(CN(C)C[C@@H]2OCc3cnnn3CCCC(=O)N([C@@H](C)CO)C[C@H]2C)cc1`, the AC50 was > 10 µM (inactive).

On to `COc1ccc(CN2[C@H](CO)[C@H]3c4ccccc4N(C(=O)NC(C)C)C[C@H]32)cc1`, for which the AC50 was > 10 µM (inactive).

For `COc1ccc(C(=O)N2C[C@H]3[C@@H](c4ccccc42)[C@H](CO)N3C(=O)Cc2ccccn2)cc1`, the AC50 was > 10 µM (inactive).

`CCCNC(=O)N(Cc1cccnc1)C[C@H]1N[C@H](CO)[C@@H]1c1ccccc1`: the AC50 is > 10 µM (inactive).
